Values after ≈ are worked out from the molar mass of the structure shown.
Assays:
[1] = system: Ehrlich ascites carcinoma; assay: Ehrlich ascites carcinoma in vivo screen; set-up: concentration or dose not given beside the values; conditions: CF-1 mice
L-1210 lymphoid leukemia = assay: Cytotoxic assay, L-1210 lymphoid leukemia cell line; format: cell-based; conditions: dosage required to kill 50 percent of the tumor cells in cell culture
From the text: (§2) Boron dipeptide analogs were investigated for potential antineoplastic activity in the Ehrlich ascites carcinoma in vivo screen in CF-1 mice and in cytotoxic assays involving the L-1210 lymphoid leukemia and P-388 lymphocytic leukemia cell lines. The ED50 is the effective dosage required to kill 50 percent of the tumor cells in the leukemia cell culture.

[2] = system: P-388 lymphocytic leukemia; assay: Cytotoxic assay, P-388 lymphocytic leukemia cell line; format: cell-based; conditions: dosage required to kill 50 percent of the tumor cells in cell culture
From the text: as §2

serum cholesterol levels = assay: Antihyperlipidemic screen, serum cholesterol; format: in vivo; conditions: male CF1 mice
Method: (§1) Compounds to be tested were suspended in 1% aqueous carboxymethylcellulose and administered to male CF1 mice (25 g) intraperitoneally for 16d. On days 9 and 16, blood was obtained by tail vein bleeding, and the serum was separated by centrifugation for three minutes. The serum cholesterol levels were determined by a modification of the Liebermann-Burchard reaction [A. T. Ness, J. V. Pastewka, and A. C. Peacock, Clin. Chim. Acta, 10, 229 (1964)]. Serum triglyceride levels were determined with a commercial kit [Fisher, Hycel Triglyceride Test Kit] for a different group of animal bled on day 16.

[3] = system: Serum triglyceride levels; assay: Antihyperlipidemic screen, serum triglyceride; format: in vivo; conditions: male CF1 mice
Method: as §1

| Compound | In Vivo % Inhibition of Ehrlich Ascites Carcinoma Growth [1] | ED50 Cytotoxicity L-1210 Lymphoid Leukemia (L-1210 lymphoid leukemia) | ED50 Cytotoxicity P-388 Lymphocytic Leukemia [2] | % Inhibition Serum Cholesterol Day 9 (serum cholesterol levels; 20 mg/kg intraperitoneally) | % Inhibition Serum Cholesterol Day 16 (serum cholesterol levels; 20 mg/kg intraperitoneally) | % Inhibition Serum Triglyceride Day 16 ([3]; 20 mg/kg intraperitoneally) | % Inhibition Serum Cholesterol Day 9 (serum cholesterol levels; 8 mg/kg intraperitoneally) | % Inhibition Serum Cholesterol Day 16 (serum cholesterol levels; 8 mg/kg intraperitoneally) | % Inhibition Serum Triglyceride Day 16 ([3]; 8 mg/kg intraperitoneally) |
| --- | --- | --- | --- | --- | --- | --- | --- | --- | --- |
| COC(=O)[C@H](CO)NC(=O)[BH2-][N+](C)(C)C [Compound 8, N-[(Trimethylamine-boryl)carbonyl]-L-serine methyl ester] | 61% | 1.98 µg/mL (≈ 9.08 µM) | 9.21 µg/mL (≈ 42.2 µM) |  |  |  |  |  |  |
| COC(=O)[C@H](Cc1ccccc1)NC(=O)[BH2-][N+](C)(C)C [Compound 13, N-[(Trimethylamine-boryl)carbonyl]-L-phenylalanine methyl ester] | 94% | 10.84 µg/mL (≈ 39 µM) | 8.89 µg/mL (≈ 32 µM) | 25% | 48% | 33% |  |  |  |
| CSCCC(NC(=O)[BH2-][NH3+])C(N)=O (stereo not drawn) [Compound 3, N-[(Ammonia-boryl)carbonyl] methionine amide] | 75% | 4.17 µg/mL (≈ 20.3 µM) | 8.57 µg/mL (≈ 41.8 µM) |  |  |  |  |  |  |
| COC(=O)CNC(=O)[BH2-][N+](C)(C)C [Compound 7, N-[(Trimethylamine-boryl)carbonyl]glycine methyl ester] | 89% | 7.00 µg/mL (≈ 37.2 µM) | 12.11 µg/mL (≈ 64.4 µM) | 31% | 52% | 30% | 21% | 42% | 59% |
| Nc1ccn([C@@H]2O[C@H](CO)[C@@H](O)[C@@H]2O)c(=O)n1 [Ara C, reference compound] |  | 2.76 µg/mL (≈ 11.3 µM) | 4.06 µg/mL (≈ 16.7 µM) |  |  |  |  |  |  |
| Sc1ncnc2nc[nH]c12 [6-Mercaptopurine, reference compound] | 99.6% | 2.43 µg/mL (≈ 16 µM) | 4.10 µg/mL (≈ 26.9 µM) |  |  |  |  |  |  |
| COC(=O)[C@H](CCSC)NC(=O)[BH2-][N+](C)(C)C [Compound 9, N-[(Trimethylamine-boryl)carbonyl]-L-methionine methyl ester] | 41% | 6.62 µg/mL (≈ 25.2 µM) | 12.86 µg/mL (≈ 49 µM) | 55% | 55% | 23% |  |  |  |
| N[C@@H](Cc1ccc(N(CCCl)CCCl)cc1)C(=O)O [Melphalan, reference compound] | 99% |  |  |  |  |  |  |  |  |
| O=c1[nH]cc(F)c(=O)[nH]1 [5-Fluorouracil, reference compound] |  | 1.94 µg/mL (≈ 14.9 µM) | 3.72 µg/mL (≈ 28.6 µM) |  |  |  |  |  |  |
| NC(=O)C(CO)NC(=O)[BH2-][NH3+] (stereo not drawn) [Compound 2, N-[(Ammoniaboryl)carbonyl]serine amide] | 52% | 10.6 µg/mL (≈ 65.9 µM) | 8.73 µg/mL (≈ 54.2 µM) |  |  |  |  |  |  |
| NC(=O)CNC(=O)[BH2-][NH3+] [Compound 1, N-[(ammonia-boryl)carbonyl]glycine amide] | 67% | 1.40 µg/mL (≈ 10.7 µM) | 7.62 µg/mL (≈ 58.2 µM) |  |  |  | 21% | 42% | 53% |
| COC(=O)[C@H](C)NC(=O)[BH2-][N+](C)(C)C [Compound 16, N-[(Trimethylamine-boryl)carbonyl]-L-alanine methyl ester] | 83% |  |  |  |  |  |  |  |  |
